Laboratory results reported in ChEMBL document CHEMBL3991601, “The target landscape of clinical kinase drugs” (Science, 2017).
Activity calls are given as the source filed them.

Biological target: T1, General transcription and DNA repair factor IIH helicase subunit XPD (Homo sapiens, UniProt P18074)
T1 sequence (P18074 whole entry): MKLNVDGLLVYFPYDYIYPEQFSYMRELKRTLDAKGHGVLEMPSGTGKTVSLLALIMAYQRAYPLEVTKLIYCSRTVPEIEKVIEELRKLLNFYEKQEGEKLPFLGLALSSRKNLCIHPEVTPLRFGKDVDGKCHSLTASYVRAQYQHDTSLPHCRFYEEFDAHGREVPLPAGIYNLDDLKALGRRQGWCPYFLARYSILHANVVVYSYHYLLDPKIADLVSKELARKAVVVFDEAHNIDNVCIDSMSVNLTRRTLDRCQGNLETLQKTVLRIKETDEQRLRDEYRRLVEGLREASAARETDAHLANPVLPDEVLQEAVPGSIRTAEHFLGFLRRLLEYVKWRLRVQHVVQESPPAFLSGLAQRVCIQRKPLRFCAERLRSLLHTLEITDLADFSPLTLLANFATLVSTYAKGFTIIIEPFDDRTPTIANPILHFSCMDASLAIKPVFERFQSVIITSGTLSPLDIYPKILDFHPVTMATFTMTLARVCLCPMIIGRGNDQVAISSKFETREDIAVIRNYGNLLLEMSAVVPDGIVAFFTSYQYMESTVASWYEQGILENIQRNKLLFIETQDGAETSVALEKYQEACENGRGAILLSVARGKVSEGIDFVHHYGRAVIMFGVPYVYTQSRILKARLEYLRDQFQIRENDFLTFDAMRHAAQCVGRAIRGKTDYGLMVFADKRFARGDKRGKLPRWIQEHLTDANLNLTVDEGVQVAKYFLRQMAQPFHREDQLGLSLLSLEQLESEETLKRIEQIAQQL
Details: read-out: Kd apparent; k-562, colo 205, sk-n-be(2) and mv-4-11
Also: in the data inactive means no Kd found up to 30 µM.

Row | Compound | Kd
1 | COC(=O)[C@@]1(O)C[C@H]2O[C@]1(C)n1c3ccccc3c3c4c(c5c6ccccc6n2c5c31)C(=O)NC4 [K-252A] | > 30 µM (inactive)
2 | Cc1c(F)cc(C(=O)NC2CC2)cc1-c1ccc(C(=O)NCC(C)(C)C)cn1 [LOSMAPIMOD] | > 30 µM (inactive)
3 | CN1N=C(N)c2cn([C@@H]3O[C@H](COP(=O)(O)O)[C@@H](O)[C@H]3O)c3ncnc1c23 [TRICIRIBINE PHOSPHATE] | > 30 µM (inactive)
4 | CC(C)Nc1cc(-c2c[nH]c(C(=O)N[C@H](CO)c3cccc(Cl)c3)c2)c(Cl)cn1 [ULIXERTINIB] | > 30 µM (inactive)

Biological target: Myosin light chain kinase, smooth muscle (Homo sapiens, UniProt Q15746)
Details: not given

Row | Compound | Kd
5 | Cc1c(F)cc(C(=O)NC2CC2)cc1-c1ccc(C(=O)NCC(C)(C)C)cn1 [LOSMAPIMOD] | > 30 µM (inactive)
6 | CN1N=C(N)c2cn([C@@H]3O[C@H](COP(=O)(O)O)[C@@H](O)[C@H]3O)c3ncnc1c23 [TRICIRIBINE PHOSPHATE] | > 30 µM (inactive)
7 | CC(C)Nc1cc(-c2c[nH]c(C(=O)N[C@H](CO)c3cccc(Cl)c3)c2)c(Cl)cn1 [ULIXERTINIB] | > 30 µM (inactive)

Biological target: Bone morphogenetic protein receptor type-1B (Homo sapiens, UniProt O00238)
Details: not given

Chain of Bone morphogenetic protein receptor type-1B (O00238 whole entry): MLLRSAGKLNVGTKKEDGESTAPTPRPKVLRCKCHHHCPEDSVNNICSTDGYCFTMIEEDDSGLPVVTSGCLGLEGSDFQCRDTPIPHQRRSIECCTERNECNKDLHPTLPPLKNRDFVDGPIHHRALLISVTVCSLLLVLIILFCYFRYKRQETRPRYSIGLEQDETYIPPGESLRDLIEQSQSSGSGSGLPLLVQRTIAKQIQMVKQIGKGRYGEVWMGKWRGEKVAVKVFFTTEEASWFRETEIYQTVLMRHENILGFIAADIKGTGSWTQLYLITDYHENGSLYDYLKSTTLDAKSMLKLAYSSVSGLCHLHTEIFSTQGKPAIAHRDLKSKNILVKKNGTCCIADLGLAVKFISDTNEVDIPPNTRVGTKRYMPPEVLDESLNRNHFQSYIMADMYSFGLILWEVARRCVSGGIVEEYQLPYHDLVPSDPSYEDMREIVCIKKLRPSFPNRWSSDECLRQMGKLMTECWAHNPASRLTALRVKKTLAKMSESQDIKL

Row | Compound | Kd
8 | COC(=O)[C@@]1(O)C[C@H]2O[C@]1(C)n1c3ccccc3c3c4c(c5c6ccccc6n2c5c31)C(=O)NC4 [K-252A] | > 30 µM (inactive)
9 | Cc1c(F)cc(C(=O)NC2CC2)cc1-c1ccc(C(=O)NCC(C)(C)C)cn1 [LOSMAPIMOD] | > 30 µM (inactive)
10 | CC(C)Nc1cc(-c2c[nH]c(C(=O)N[C@H](CO)c3cccc(Cl)c3)c2)c(Cl)cn1 [ULIXERTINIB] | > 30 µM (inactive)

Biological target: Mitogen-activated protein kinase 1 (Homo sapiens, UniProt P28482)
Details: not given

Chain of Mitogen-activated protein kinase 1 (P28482 whole entry): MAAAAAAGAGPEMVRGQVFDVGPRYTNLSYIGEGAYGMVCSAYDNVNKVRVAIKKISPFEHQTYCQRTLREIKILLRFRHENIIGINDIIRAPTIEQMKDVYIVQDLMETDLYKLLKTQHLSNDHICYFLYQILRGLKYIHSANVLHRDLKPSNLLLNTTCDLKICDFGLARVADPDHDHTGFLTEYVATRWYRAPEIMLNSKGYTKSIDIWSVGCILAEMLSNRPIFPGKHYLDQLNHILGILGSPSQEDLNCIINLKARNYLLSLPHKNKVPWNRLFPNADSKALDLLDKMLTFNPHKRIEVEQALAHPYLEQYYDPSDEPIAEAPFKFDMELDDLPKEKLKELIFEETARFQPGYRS

Row | Compound | Kd
11 | COC(=O)[C@@]1(O)C[C@H]2O[C@]1(C)n1c3ccccc3c3c4c(c5c6ccccc6n2c5c31)C(=O)NC4 [K-252A] | > 30 µM (inactive)
12 | Cc1c(F)cc(C(=O)NC2CC2)cc1-c1ccc(C(=O)NCC(C)(C)C)cn1 [LOSMAPIMOD] | > 30 µM (inactive)
13 | CN1N=C(N)c2cn([C@@H]3O[C@H](COP(=O)(O)O)[C@@H](O)[C@H]3O)c3ncnc1c23 [TRICIRIBINE PHOSPHATE] | > 30 µM (inactive)

Biological target: T2, Acyl-CoA dehydrogenase family member 11 (Homo sapiens, UniProt Q709F0)
T2 sequence (Q709F0 whole entry): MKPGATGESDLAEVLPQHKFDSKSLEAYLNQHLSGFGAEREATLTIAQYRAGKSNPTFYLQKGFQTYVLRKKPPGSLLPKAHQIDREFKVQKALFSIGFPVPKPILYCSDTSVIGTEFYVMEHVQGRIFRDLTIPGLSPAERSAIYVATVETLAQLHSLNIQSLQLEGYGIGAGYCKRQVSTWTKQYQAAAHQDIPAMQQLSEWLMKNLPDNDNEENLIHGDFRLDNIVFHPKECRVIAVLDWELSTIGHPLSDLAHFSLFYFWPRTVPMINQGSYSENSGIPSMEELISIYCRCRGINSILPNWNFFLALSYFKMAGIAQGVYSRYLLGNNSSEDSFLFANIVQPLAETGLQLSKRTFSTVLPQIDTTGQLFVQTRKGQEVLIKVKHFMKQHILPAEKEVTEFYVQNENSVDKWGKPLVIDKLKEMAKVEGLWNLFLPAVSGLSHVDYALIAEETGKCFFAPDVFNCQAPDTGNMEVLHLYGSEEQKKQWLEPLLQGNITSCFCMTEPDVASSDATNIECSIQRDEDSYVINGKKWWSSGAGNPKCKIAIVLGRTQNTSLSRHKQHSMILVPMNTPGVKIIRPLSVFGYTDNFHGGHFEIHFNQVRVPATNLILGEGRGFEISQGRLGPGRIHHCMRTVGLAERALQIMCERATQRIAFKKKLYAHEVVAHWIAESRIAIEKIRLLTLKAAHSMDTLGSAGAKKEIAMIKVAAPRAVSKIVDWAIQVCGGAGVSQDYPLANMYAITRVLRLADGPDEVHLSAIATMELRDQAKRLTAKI
Details: not given

Row | Compound | Kd
14 | COC(=O)[C@@]1(O)C[C@H]2O[C@]1(C)n1c3ccccc3c3c4c(c5c6ccccc6n2c5c31)C(=O)NC4 [K-252A] | > 30 µM (inactive)
15 | Cc1c(F)cc(C(=O)NC2CC2)cc1-c1ccc(C(=O)NCC(C)(C)C)cn1 [LOSMAPIMOD] | > 30 µM (inactive)
16 | CN1N=C(N)c2cn([C@@H]3O[C@H](COP(=O)(O)O)[C@@H](O)[C@H]3O)c3ncnc1c23 [TRICIRIBINE PHOSPHATE] | > 30 µM (inactive)
17 | CC(C)Nc1cc(-c2c[nH]c(C(=O)N[C@H](CO)c3cccc(Cl)c3)c2)c(Cl)cn1 [ULIXERTINIB] | > 30 µM (inactive)

Biological target: T3, ATP-dependent RNA helicase DDX1 (Homo sapiens, UniProt Q92499)
T3 sequence (Q92499 whole entry): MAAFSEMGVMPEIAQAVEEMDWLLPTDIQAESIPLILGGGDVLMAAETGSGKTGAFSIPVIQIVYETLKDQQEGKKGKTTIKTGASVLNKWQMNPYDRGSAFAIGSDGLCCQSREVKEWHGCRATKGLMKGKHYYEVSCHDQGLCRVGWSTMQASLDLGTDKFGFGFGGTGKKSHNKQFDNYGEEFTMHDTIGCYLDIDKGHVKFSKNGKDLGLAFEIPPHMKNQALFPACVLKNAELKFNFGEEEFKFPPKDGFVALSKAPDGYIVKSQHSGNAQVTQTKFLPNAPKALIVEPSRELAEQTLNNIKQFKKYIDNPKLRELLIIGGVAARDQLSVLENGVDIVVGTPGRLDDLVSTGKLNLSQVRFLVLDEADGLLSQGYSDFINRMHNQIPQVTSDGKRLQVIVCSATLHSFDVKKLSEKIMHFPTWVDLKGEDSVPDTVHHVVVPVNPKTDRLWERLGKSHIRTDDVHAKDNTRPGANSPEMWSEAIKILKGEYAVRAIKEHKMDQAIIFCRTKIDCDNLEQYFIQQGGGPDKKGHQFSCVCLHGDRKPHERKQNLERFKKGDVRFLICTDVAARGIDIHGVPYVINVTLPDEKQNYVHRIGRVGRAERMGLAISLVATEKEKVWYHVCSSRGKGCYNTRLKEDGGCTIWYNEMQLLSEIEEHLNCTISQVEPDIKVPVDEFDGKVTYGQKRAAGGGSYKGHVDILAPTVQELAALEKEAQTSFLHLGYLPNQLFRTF
Details: not given

Row | Compound | Kd
18 | COC(=O)[C@@]1(O)C[C@H]2O[C@]1(C)n1c3ccccc3c3c4c(c5c6ccccc6n2c5c31)C(=O)NC4 [K-252A] | > 30 µM (inactive)
19 | Cc1c(F)cc(C(=O)NC2CC2)cc1-c1ccc(C(=O)NCC(C)(C)C)cn1 [LOSMAPIMOD] | > 30 µM (inactive)
20 | CN1N=C(N)c2cn([C@@H]3O[C@H](COP(=O)(O)O)[C@@H](O)[C@H]3O)c3ncnc1c23 [TRICIRIBINE PHOSPHATE] | > 30 µM (inactive)
21 | CC(C)Nc1cc(-c2c[nH]c(C(=O)N[C@H](CO)c3cccc(Cl)c3)c2)c(Cl)cn1 [ULIXERTINIB] | > 30 µM (inactive)

Biological target: Mitogen-activated protein kinase kinase kinase 20 (Homo sapiens, UniProt Q9NYL2)
Details: not given

Chain of Mitogen-activated protein kinase kinase kinase 20 (Q9NYL2 whole entry): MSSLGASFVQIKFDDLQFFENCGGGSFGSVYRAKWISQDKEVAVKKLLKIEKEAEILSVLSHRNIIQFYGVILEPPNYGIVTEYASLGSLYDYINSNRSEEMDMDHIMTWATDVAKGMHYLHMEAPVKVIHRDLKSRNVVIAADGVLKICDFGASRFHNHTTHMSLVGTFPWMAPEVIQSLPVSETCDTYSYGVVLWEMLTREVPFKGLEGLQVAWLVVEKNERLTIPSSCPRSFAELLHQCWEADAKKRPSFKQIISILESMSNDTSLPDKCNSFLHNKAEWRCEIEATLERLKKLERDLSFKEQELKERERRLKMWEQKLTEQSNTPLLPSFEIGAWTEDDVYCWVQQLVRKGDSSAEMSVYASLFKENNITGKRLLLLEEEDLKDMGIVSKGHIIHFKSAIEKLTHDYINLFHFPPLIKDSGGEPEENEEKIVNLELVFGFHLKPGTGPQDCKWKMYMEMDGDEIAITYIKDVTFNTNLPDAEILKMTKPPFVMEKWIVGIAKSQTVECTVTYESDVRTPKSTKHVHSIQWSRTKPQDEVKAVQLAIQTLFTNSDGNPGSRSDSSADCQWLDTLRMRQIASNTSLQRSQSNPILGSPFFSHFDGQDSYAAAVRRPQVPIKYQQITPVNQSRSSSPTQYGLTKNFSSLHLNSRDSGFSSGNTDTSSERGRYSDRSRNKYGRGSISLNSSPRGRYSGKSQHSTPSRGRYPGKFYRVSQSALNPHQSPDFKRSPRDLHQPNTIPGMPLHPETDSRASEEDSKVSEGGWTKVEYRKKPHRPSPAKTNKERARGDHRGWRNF

Row | Compound | Kd
22 | COC(=O)[C@@]1(O)C[C@H]2O[C@]1(C)n1c3ccccc3c3c4c(c5c6ccccc6n2c5c31)C(=O)NC4 [K-252A] | > 30 µM (inactive)
23 | Cc1c(F)cc(C(=O)NC2CC2)cc1-c1ccc(C(=O)NCC(C)(C)C)cn1 [LOSMAPIMOD] | > 30 µM (inactive)
24 | CN1N=C(N)c2cn([C@@H]3O[C@H](COP(=O)(O)O)[C@@H](O)[C@H]3O)c3ncnc1c23 [TRICIRIBINE PHOSPHATE] | > 30 µM (inactive)
25 | CC(C)Nc1cc(-c2c[nH]c(C(=O)N[C@H](CO)c3cccc(Cl)c3)c2)c(Cl)cn1 [ULIXERTINIB] | > 30 µM (inactive)

Biological target: U5 small nuclear ribonucleoprotein 200 kDa helicase (Homo sapiens, UniProt O75643)
Details: not given

Chain of U5 small nuclear ribonucleoprotein 200 kDa helicase (O75643 whole entry): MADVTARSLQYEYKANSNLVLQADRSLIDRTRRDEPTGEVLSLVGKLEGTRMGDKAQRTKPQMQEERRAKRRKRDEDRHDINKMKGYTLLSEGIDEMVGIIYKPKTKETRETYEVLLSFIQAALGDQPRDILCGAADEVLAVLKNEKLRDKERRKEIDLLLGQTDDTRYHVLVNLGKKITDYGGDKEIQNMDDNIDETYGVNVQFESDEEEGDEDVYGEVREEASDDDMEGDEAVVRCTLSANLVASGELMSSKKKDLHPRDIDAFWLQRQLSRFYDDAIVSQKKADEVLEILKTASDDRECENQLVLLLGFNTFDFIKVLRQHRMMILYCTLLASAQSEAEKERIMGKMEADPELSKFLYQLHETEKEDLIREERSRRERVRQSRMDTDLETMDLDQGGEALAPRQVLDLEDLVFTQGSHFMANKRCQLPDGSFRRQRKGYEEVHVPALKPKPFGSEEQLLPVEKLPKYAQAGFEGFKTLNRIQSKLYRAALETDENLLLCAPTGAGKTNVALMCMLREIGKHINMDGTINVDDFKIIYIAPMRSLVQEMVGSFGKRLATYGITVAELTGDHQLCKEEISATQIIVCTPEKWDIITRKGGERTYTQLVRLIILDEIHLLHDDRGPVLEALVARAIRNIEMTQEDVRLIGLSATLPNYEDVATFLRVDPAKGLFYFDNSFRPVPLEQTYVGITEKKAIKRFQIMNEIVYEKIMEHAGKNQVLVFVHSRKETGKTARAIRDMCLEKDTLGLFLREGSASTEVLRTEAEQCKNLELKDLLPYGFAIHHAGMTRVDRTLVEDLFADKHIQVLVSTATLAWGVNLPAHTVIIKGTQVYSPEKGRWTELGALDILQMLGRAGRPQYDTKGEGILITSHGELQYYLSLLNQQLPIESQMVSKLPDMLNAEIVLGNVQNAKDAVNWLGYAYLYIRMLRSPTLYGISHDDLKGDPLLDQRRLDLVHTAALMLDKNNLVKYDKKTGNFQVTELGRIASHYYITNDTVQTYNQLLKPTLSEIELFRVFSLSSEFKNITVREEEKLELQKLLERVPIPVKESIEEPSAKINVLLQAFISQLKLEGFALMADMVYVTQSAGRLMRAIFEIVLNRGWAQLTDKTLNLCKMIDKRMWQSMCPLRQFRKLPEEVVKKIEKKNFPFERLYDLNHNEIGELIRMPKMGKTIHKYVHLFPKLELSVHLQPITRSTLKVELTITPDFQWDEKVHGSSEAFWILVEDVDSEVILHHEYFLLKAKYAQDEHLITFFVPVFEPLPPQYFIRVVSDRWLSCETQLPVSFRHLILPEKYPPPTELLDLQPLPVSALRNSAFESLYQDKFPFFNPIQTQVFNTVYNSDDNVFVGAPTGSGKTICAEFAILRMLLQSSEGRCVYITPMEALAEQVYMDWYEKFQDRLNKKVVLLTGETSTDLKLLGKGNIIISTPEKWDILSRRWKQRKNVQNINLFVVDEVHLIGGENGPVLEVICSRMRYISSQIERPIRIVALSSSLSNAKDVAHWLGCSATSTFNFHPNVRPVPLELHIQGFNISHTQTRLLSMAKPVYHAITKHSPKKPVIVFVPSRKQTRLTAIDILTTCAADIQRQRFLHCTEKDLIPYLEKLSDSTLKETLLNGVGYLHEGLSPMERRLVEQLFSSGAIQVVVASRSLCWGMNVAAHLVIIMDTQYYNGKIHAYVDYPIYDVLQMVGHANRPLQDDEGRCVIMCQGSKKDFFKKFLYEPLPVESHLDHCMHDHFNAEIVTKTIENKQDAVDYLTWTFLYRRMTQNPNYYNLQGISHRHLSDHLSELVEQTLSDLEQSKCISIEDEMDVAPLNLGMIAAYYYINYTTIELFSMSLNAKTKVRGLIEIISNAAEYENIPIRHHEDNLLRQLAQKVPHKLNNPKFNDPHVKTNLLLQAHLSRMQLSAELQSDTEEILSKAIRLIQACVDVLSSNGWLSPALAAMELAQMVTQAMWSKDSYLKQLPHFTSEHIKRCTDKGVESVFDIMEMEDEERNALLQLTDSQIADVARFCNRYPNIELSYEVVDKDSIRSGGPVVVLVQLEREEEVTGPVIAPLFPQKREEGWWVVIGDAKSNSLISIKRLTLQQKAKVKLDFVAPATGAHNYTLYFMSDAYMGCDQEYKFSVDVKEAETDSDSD

Row | Compound | Kd
26 | COC(=O)[C@@]1(O)C[C@H]2O[C@]1(C)n1c3ccccc3c3c4c(c5c6ccccc6n2c5c31)C(=O)NC4 [K-252A] | > 30 µM (inactive)
27 | CN1N=C(N)c2cn([C@@H]3O[C@H](COP(=O)(O)O)[C@@H](O)[C@H]3O)c3ncnc1c23 [TRICIRIBINE PHOSPHATE] | > 30 µM (inactive)
28 | CC(C)Nc1cc(-c2c[nH]c(C(=O)N[C@H](CO)c3cccc(Cl)c3)c2)c(Cl)cn1 [ULIXERTINIB] | > 30 µM (inactive)

Biological target: RAC-gamma serine/threonine-protein kinase (Homo sapiens, UniProt Q9Y243)
Details: not given

Chain of RAC-gamma serine/threonine-protein kinase (Q9Y243 whole entry): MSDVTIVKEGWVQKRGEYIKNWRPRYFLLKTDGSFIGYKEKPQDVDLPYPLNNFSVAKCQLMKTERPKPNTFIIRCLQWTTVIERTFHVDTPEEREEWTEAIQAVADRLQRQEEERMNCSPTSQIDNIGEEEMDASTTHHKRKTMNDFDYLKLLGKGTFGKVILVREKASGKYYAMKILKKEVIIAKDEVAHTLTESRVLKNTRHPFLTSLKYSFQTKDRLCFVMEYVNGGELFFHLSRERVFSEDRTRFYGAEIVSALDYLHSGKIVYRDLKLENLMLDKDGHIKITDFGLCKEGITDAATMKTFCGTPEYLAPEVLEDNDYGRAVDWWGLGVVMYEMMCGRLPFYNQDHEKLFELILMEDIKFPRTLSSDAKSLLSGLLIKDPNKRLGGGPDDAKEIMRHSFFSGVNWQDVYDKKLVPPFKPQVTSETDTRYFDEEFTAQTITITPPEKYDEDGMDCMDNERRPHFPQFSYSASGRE

Row | Compound | Kd
29 | COC(=O)[C@@]1(O)C[C@H]2O[C@]1(C)n1c3ccccc3c3c4c(c5c6ccccc6n2c5c31)C(=O)NC4 [K-252A] | > 30 µM (inactive)
30 | Cc1c(F)cc(C(=O)NC2CC2)cc1-c1ccc(C(=O)NCC(C)(C)C)cn1 [LOSMAPIMOD] | > 30 µM (inactive)
31 | CN1N=C(N)c2cn([C@@H]3O[C@H](COP(=O)(O)O)[C@@H](O)[C@H]3O)c3ncnc1c23 [TRICIRIBINE PHOSPHATE] | > 30 µM (inactive)
32 | CC(C)Nc1cc(-c2c[nH]c(C(=O)N[C@H](CO)c3cccc(Cl)c3)c2)c(Cl)cn1 [ULIXERTINIB] | > 30 µM (inactive)
